Experimental data: patent publication US10173983B2, “Fungicidal pyridylamidines” (Syngenta Participations AG, priority 2014, dated 2019)

How the values were obtained:
Assay type in all cases: in vivo
[1] = tested on: Blumeria graminis f. Sp. tritici (Erysiphe graminis f. sp. tritici); experiment: Blumeria graminis f. sp. tritici / wheat / leaf disc preventative (powdery mildew on wheat); conditions: foliar, wheat leaf segments cv. Kanzler, inoculated 1 day after application, assessed 6-8 days after application, compared to untreated, read-out: disease control
Protocol: Blumeria graminis f. Sp. tritici (Erysiphe graminis f. sp. tritici)/Wheat/Leaf Disc Preventative (Powdery Mildew on Wheat) Wheat leaf segments cv. Kanzler were placed on agar in a multiwell plate (24-well format) and sprayed with the formulated test compound diluted in water. The leaf disks were inoculated by shaking powdery mildew infected plants above the test plates 1 day after application. The inoculated leaf disks were incubated at 20° C. and 60% rh under a light regime of 24 h darkness followed by 12 h light/12 h darkness in a climate chamber and the activity of a compound was assessed as percent disease control compared to untreated when an appropriate level of disease damage appears on untreated check leaf segments (6-8 days after application). The following compounds gave at 200 ppm give at least 80% disease control in this test when compared to untreated control leaf disks under the same conditions, which show extensive disease development: […]

[2] = tested on: Puccinia recondita f. sp. tritici; experiment: Puccinia recondita f. sp. tritici / wheat / leaf disc preventative (brown rust); conditions: foliar, 168 h, wheat leaf segments cv. Kanzler, inoculated 1 day after application, assessed 7-9 days after application, compared to untreated, read-out: disease control
Protocol: Puccinia recondita f. sp. tritici/Wheat/Leaf Disc Preventative (Brown Rust) Wheat leaf segments cv. Kanzler were placed on agar in multiwell plates (24-well format) and sprayed with the formulated test compound diluted in water. The leaf disks were inoculated with a spore suspension of the fungus 1 day after application. The inoculated leaf segments were incubated at 19° C. and 75% rh under a light regime of 12 h light/12 h darkness in a climate cabinet and the activity of a compound was assessed as percent disease control compared to untreated when an appropriate level of disease damage appears in untreated check leaf segments (7-9 days after application). The following compounds gave at 200 ppm gave at least 80% disease control in this test when compared to untreated control leaf disks under the same conditions, which show extensive disease development: […]

[3] = tested on: Puccinia recondita f. sp. tritici; experiment: Puccinia recondita f. sp. tritici / wheat / leaf disc curative (brown rust); conditions: foliar, wheat leaf segments cv. Kanzler, compound applied 1 day after inoculation, assessed 6-8 days after application, compared to untreated, read-out: disease control
Protocol: Puccinia recondita f. sp. tritici/Wheat/Leaf Disc Curative (Brown Rust) Wheat leaf segments cv. Kanzler are placed on agar in multiwell plates (24-well format). The leaf segments are inoculated with a spore suspension of the fungus. Plates were stored in darkness at 19° C. and 75% rh. The formulated test compound diluted in water was applied 1 day after inoculation. The leaf segments were incubated at 19° C. and 75% rh under a light regime of 12 h light/12 h darkness in a climate cabinet and the activity of a compound was assessed as percent disease control compared to untreated when an appropriate level of disease damage appears in untreated check leaf segments (6-8 days after application). The following compounds gave at 200 ppm gave at least 80% disease control in this test when compared to untreated control leaf disks under the same conditions, which show extensive disease development: […]

Phakopsora pachyrhizi = Phakopsora pachyrhizi on soybean, preventive treatment; conditions: 264 h, 1 day preventive, triazole tolerant soybean rust strain, evaluated 11 days after application, compared to untreated, read-out: disease control
Protocol: Phakopsora pachyrhizi on Soybean, Preventive Treatment
The compound activity was tested under 1 day preventive conditions. Soybean plants with a fully enfolded first trifoliate leaf were sprayed with a track sprayer and 50 l/ha spray volume with the test compounds, either solo or in tankmix as shown in the table below. 1 day after application leaf discs were cut from the first trifoliate leaf and placed in multiwell plates on water-agar. 5 leaf discs per treatment where infested with spores of a triazole tolerant soybean rust strain. The multiwell plates where sealed and placed in an incubator 48 h in darkness and 12 h light/dark cycle afterwards. Rust infestation on leaf discs was evaluated visually 11 days after application and average activity calculated in relation to disease severity on untreated check leaf discs.
The following compounds gave at 200 ppm gave at least 80% disease control in this test when compared to untreated control leaf disks under the same conditions, which show extensive disease development: […]

Measured: pest or weed control at 200 ppm

CCCOCC(C)Oc1nc(C)c(/N=C/N(C)CC)cc1Cl (stereo not drawn) [Q.015, N′-[5-chloro-2-methyl-6-(1-methyl-2-propoxy-ethoxy)-3-pyridyl]-N-ethyl-N-methyl-formamidine]
≥ 80%: all assays above

C=CCOCC(COC)Oc1nc(C)c(N=CN(C)CC)cc1Br (stereo not drawn) [Q.016, N′-[6-[1-(allyloxymethyl)-2-methoxy-ethoxy]-5-bromo-2-methyl-3-pyridyl]-N-ethyl-N-methyl-formamidine]
≥ 80%: all assays above

C=CCOCC(C)Oc1nc(C)c(N=CN(C)CC)cc1C#N (stereo not drawn) [Q.017, N′-[6-(2-allyloxy-1-methyl-ethoxy)-5-cyano-2-methyl-3-pyridyl]-N-ethyl-N-methyl-formamidine]
≥ 80%: all assays above

CCCOCC(C)Oc1nc(C)c(N=CN(C)C(C)C)cc1Br (stereo not drawn) [Q.018, N′-[5-bromo-2-methyl-6-(1-methyl-2-propoxy-ethoxy)-3-pyridyl]-N-isopropyl-N-methyl-formamidine]
≥ 80%: all assays above

CCN(C)C=Nc1cc(C#N)c(OC(C)COc2cccc(C(F)(F)F)c2)nc1C (stereo not drawn) [Q.020, N′-[5-cyano-2-methyl-6-[1-methyl-2-[3-(trifluoromethyl)phenoxy]ethoxy]-3-pyridyl]-N-ethyl-N-methyl-formamidine]
≥ 80%: all assays above

CCN(C)C=Nc1cc(Cl)c(OC(C)COc2cccc(C(F)(F)F)c2)nc1C (stereo not drawn) [Q.023, N′-[5-chloro-2-methyl-6-[1-methyl-2-[3-(trifluoromethyl)phenoxy]ethoxy]-3-pyridyl]-N-ethyl-N-methyl-formamidine]
≥ 80%: all assays above

CCN(C)C=Nc1cc(Cl)c(OC(C)COc2ccc(Cl)cc2)nc1C (stereo not drawn) [Q.024, N′-[5-chloro-6-[2-(4-chlorophenoxy)-1-methyl-ethoxy]-2-methyl-3-pyridyl]-N-ethyl-N-methyl-formamidine]
≥ 80%: all assays above

CCN(C)C=Nc1cc(Cl)c(OC(C)COc2ccccc2)nc1C (stereo not drawn) [Q.025, N′-[5-chloro-2-methyl-6-(1-methyl-2-phenoxy-ethoxy)-3-pyridyl]-N-ethyl-N-methyl-formamidine]
≥ 80%: all assays above

CCN(C)C=Nc1cc(Br)c(OC(C)COc2ccc(Cl)cc2)nc1C (stereo not drawn) [Q.026, N′-[5-bromo-6-[2-(4-chlorophenoxy)-1-methyl-ethoxy]-2-methyl-3-pyridyl]-N-ethyl-N-methyl-formamidine]
≥ 80%: all assays above

CCN(C)C=Nc1cc(Br)c(OC(C)COc2ccccc2)nc1C (stereo not drawn) [Q.028, N′-[5-bromo-2-methyl-6-(1-methyl-2-phenoxy-ethoxy)-3-pyridyl]-N-ethyl-N-methyl-formamidine]
≥ 80%: all assays above

CCCOCC(C)Oc1nc(C)c(N=CN(C)C2CC2)cc1Br (stereo not drawn) [Q.029, N′-[5-bromo-2-methyl-6-(1-methyl-2-propoxy-ethoxy)-3-pyridyl]-N-cyclopropyl-N-methyl-formamidine]
≥ 80%: all assays above

CCCOCC(C)Oc1nc(C)c(N=CN2CCC2)cc1Br (stereo not drawn) [Q.030, 1-(azetidin-1-yl)-N-[5-bromo-2-methyl-6-(1-methyl-2-propoxy-ethoxy)-3-pyridyl]methanimine]
≥ 80%: all assays above
